From ChEMBL document CHEMBL2331107, “Novel fluorescent risedronates: synthesis, photodynamic inactivation and imaging of Bacillus subtilis” (2013) come the findings set out here.

Activity calls are given as the source filed them. The rule behind the calls is not given here. Some results are limits rather than exact numbers.

The test system of experiment [1] is Bacillus subtilis. Description: Antimicrobial activity against Bacillus subtilis ATCC 6633 measured after 24 hrs at 37 degC. The class given is functional. To be noted: ATCC 6633, 24 h.
Experiment [2] relates to Bacillus subtilis. In words: Antimicrobial activity against Bacillus subtilis ATCC 6633 assessed as photodynamic inactivation measured as lethality at 10 uM. The class given is functional.

In general, MIC refers to the least concentration at which growth counts as inhibited. Molecule `O=C(NCC(O)C[n+]1cccc(CC(O)(P(=O)(O)O)P(=O)(O)O)c1)c1ccccc1` (stereo not drawn) yielded an MIC in the experiment on Bacillus subtilis [1] greater than 128 µg/mL.
In the experiment on Bacillus subtilis [1], `O=C(NCC(O)C[n+]1cccc(CC(O)(P(=O)(O)O)P(=O)(O)O)c1)c1cc2c(ccc3ccccc32)oc1=O` (stereo not drawn) showed an MIC greater than 128 µg/mL. Besides, the Activity in the experiment with Bacillus subtilis [2] came out at 47%.
In turn, `O=C(NCC(O)C[n+]1cccc(CC(O)(P(=O)(O)O)P(=O)(O)O)c1)c1cc2ccccc2oc1=O` (stereo not drawn) showed a minimum inhibitory concentration (MIC) in the experiment with Bacillus subtilis [1] greater than 128 µg/mL. Further, in the experiment on Bacillus subtilis [2], the Activity came to 91%.
In the experiment with Bacillus subtilis [1], `O=C(NCC(O)C[n+]1cccc(CC(O)(P(=O)(O)O)P(=O)(O)O)c1)c1ccccc1O` (stereo not drawn) returned an MIC greater than 128 µg/mL.
Consider `O=C(O)c1cc2c(ccc3ccccc32)oc1=O`, for which the outcome in the experiment with Bacillus subtilis [2] was inactive.
Turning to `O=C(O)c1cc2ccccc2oc1=O`, the outcome in the experiment with Bacillus subtilis [2] was inactive.
